According to the NIST ThermoML archive (doi:10.1021/je900974u):

Assays:
[1] = Crystal
[2] = Molar enthalpy of transition or fusion; details: Crystal; Adiabatic calorimetry
[3] = molar heat capacity at constant pressure; details: 101.33 kPa, Liquid, Vacuum adiabatic calorimetry

CCCC[N+](C)(C)C.O=S(=O)([N-]S(=O)(=O)C(F)(F)F)C(F)(F)F [butyltrimethylammonium bis(trifluoromethylsulfonyl)imide]
Details | Molar enthalpy of transition or fusion [kJ/mol] | Triple point temperature [K]
[1] | – | 290.23
[2] | 11.4 | –

[3]
Details | molar heat capacity at constant pressure [J/K/mol]
278.32 K | 547.5
280.19 K | 548.7
282.06 K | 549.7
283.93 K | 550.8
285.8 K | 551.9
287.67 K | 553
289.54 K | 554.1
291.42 K | 555.3
293.29 K | 556.4
293.87 K | 557
295.16 K | 557.4
297.04 K | 558.4
298 K | 559.2
298.91 K | 559.5
300.04 K | 560.4
302.07 K | 561.1
304.14 K | 563.3
306.21 K | 563.9
308.28 K | 565.4
310.35 K | 566.5
312.42 K | 568.2
314.49 K | 569.1
316.55 K | 570.3
318.6 K | 571.4
320.67 K | 573.2
322.73 K | 575.1
324.8 K | 575
326.86 K | 576.5
328.92 K | 577.2
330.98 K | 578.5
333.04 K | 580.6
335.09 K | 581.5
337.15 K | 582.9
339.2 K | 584.1
341.26 K | 585.7
343.31 K | 586.6
345.36 K | 587.7
347.41 K | 588.6
349.46 K | 590.1
351.49 K | 591.1
353.54 K | 592.1
355.59 K | 593.4
357.65 K | 594.8
359.7 K | 596
361.76 K | 597.4
363.81 K | 598.5
365.87 K | 599.8
367.93 K | 600.9

CCCCn1cc[n+](C)c1.F[B-](F)(F)F [1-butyl-3-methylimidazolium tetrafluoroborate]
[3]
Details | molar heat capacity at constant pressure [J/K/mol]
189.66 K | 332
191.85 K | 332.1
194.05 K | 332.1
196.25 K | 332.7
198.46 K | 332.8
200.67 K | 333.2
202.89 K | 333.7
205.12 K | 334
207.35 K | 334.5
209.58 K | 335
211.82 K | 335.5
214.06 K | 335.9
216.3 K | 336.8
218.55 K | 337.2
220.8 K | 337.8
223.05 K | 338.8
225.31 K | 339.2
227.56 K | 339.9
229.82 K | 340.4
232.09 K | 340.9
236.62 K | 342.8
238.89 K | 343.3
241.18 K | 344.4
243.46 K | 345.4
245.73 K | 345.8
248.01 K | 346.6
250.29 K | 347.5
252.57 K | 348.5
254.85 K | 349
257.13 K | 350.2
259.41 K | 351
261.7 K | 351.4
263.98 K | 352.6
266.27 K | 353.5
268.56 K | 354.6
270.84 K | 355.7
273.13 K | 356.4
275.42 K | 357.4
277.72 K | 358.3
280.02 K | 359.2
282.31 K | 360.2
284.6 K | 361.6
286.89 K | 362.1
289.17 K | 363.3
291.46 K | 364.2
293.74 K | 365.4
296.02 K | 366.3
298.3 K | 367
300.57 K | 368.2
302.84 K | 368.7
305.11 K | 370
307.38 K | 371.1
309.64 K | 372.6
311.9 K | 373.5
314.16 K | 374.2
316.43 K | 375.5
318.69 K | 376.9
320.95 K | 377.9
323.2 K | 378.9
325.45 K | 379.6
327.7 K | 381.1
329.95 K | 381.9
332.2 K | 382.6
334.45 K | 384.1
336.69 K | 384.9
338.94 K | 386
341.18 K | 387.3
343.42 K | 388.6
345.66 K | 389.8
347.9 K | 390.7
350.14 K | 391.8
352.38 K | 392.4
354.62 K | 393.9
356.85 K | 394.2
359.08 K | 395.7
361.31 K | 396.6
363.54 K | 397.9
365.76 K | 399
367.98 K | 400.1

CCCCn1cc[n+](C)c1.N#CN=C=[N-] [1-butyl-3-methylimidazolium dicyanamide]
Details | Molar enthalpy of transition or fusion [kJ/mol] | Triple point temperature [K]
[1] | – | 270.83
[2] | 17.8 | –

[3]
Details | molar heat capacity at constant pressure [J/K/mol]
235.8 K | 355.9
237.81 K | 356.5
239.87 K | 356.9
241.93 K | 357.5
243.99 K | 357.9
246.05 K | 358.6
248.11 K | 359.2
249.31 K | 359.4
250.17 K | 359.8
251.33 K | 360.2
252.23 K | 360.4
253.39 K | 360.8
254.29 K | 360.8
255.46 K | 361.2
256.35 K | 361.4
257.53 K | 362
258.41 K | 362
259.59 K | 362.7
260.48 K | 362.7
261.66 K | 363.3
262.54 K | 363.5
263.72 K | 363.9
264.6 K | 364.1
265.79 K | 364.7
266.66 K | 364.7
267.86 K | 365.3
268.72 K | 365.3
269.92 K | 365.9
270.79 K | 366.1
271.99 K | 366.5
272.85 K | 366.8
274.05 K | 367.2
274.91 K | 367.4
276.12 K | 368
278.19 K | 368.6
280.25 K | 369.4
282.32 K | 370
284.39 K | 370.9
286.45 K | 371.5
288.52 K | 372.3
290.59 K | 372.9
292.65 K | 373.7
294.72 K | 374.5
296.78 K | 375.4
298.85 K | 376.2
300.92 K | 376.8
302.98 K | 377.6
305.05 K | 378.4
307.12 K | 379.1
309.18 K | 379.9
311.25 K | 380.7
313.32 K | 381.5
315.39 K | 382.3
317.46 K | 382.9
319.53 K | 383.8
321.6 K | 384.8
323.67 K | 385.6
325.73 K | 386.4
327.8 K | 387
329.87 K | 388.1
331.94 K | 388.9
334.01 K | 389.7
336.08 K | 390.5
338.15 K | 391.1
340.22 K | 392
342.29 K | 392.8
344.36 K | 393.6
346.43 K | 394.4
348.5 K | 395.5
350.57 K | 396.3
352.65 K | 397.1
354.72 K | 397.9
356.79 K | 398.9
358.86 K | 399.6
360.93 K | 400.6
363 K | 401.4
365.07 K | 402.2
367.14 K | 403.2

CCCCCCCCCCCCCCn1cc[n+](C)c1.O=S(=O)([N-]S(=O)(=O)C(F)(F)F)C(F)(F)F
Details | Molar enthalpy of transition or fusion [kJ/mol] | Triple point temperature [K]
[1] | – | 308.72
[2] | 39.9 | –

[3]
Details | molar heat capacity at constant pressure [J/K/mol]
309.98 K | 896.3
310.38 K | 898
311.13 K | 898.7
312.28 K | 899.5
312.7 K | 900.9
313.43 K | 900.5
314.58 K | 902.3
315.01 K | 903.4
315.73 K | 903.4
316.88 K | 904.2
317.32 K | 905.3
318.04 K | 904
319.19 K | 906.1
319.63 K | 907.1
320.34 K | 907.5
321.49 K | 908.6
321.94 K | 909.6
322.64 K | 909.2
323.79 K | 910.6
324.94 K | 913.1
326.1 K | 913.5
327.25 K | 914.4
328.4 K | 915.1
329.55 K | 915.9
330.69 K | 918.6
331.84 K | 918.3
332.99 K | 919.1
334.14 K | 920.6
335.29 K | 922.4
336.45 K | 923
337.6 K | 924.6
338.75 K | 925.5
339.89 K | 926.2
341.04 K | 927.4
342.19 K | 927.9
343.33 K | 929.9
344.48 K | 930.4
345.62 K | 931.8
346.77 K | 933.1
347.91 K | 933.9
349.06 K | 935.2
350.2 K | 936.7
351.91 K | 939.3
354.21 K | 941.3
356.51 K | 943.4
358.83 K | 945.8
361.14 K | 947.9
363.45 K | 949.8
365.76 K | 951.8
368.07 K | 953.3

CCCCn1cc[n+](C)c1.O=S(=O)([O-])C(F)(F)F [1-butyl-3-methylimidazolium trifluoromethanesulfonate]
Details | Molar enthalpy of transition or fusion [kJ/mol] | Triple point temperature [K]
[1] | – | 290.98
[2] | 19.4 | –

[3]
Details | molar heat capacity at constant pressure [J/K/mol]
292.86 K | 425
294.76 K | 425.9
296.65 K | 427
298.54 K | 427.9
300.43 K | 429.1
302.38 K | 429.6
304.36 K | 431.1
306.35 K | 431.9
308.34 K | 433.1
310.33 K | 434
312.32 K | 435.1
314.31 K | 436.3
316.3 K | 437.1
318.29 K | 438.3
320.27 K | 439.1
322.26 K | 440.6
324.25 K | 441.4
326.24 K | 442.6
328.22 K | 443.8
330.2 K | 444.6
332.19 K | 445.8
334.17 K | 446.9
336.15 K | 447.8
338.13 K | 448.9
340.11 K | 449.8
342.09 K | 451
344.07 K | 452.1
346.05 K | 453.3
348.03 K | 454.3
350 K | 455.5
351.98 K | 456.3
353.96 K | 457.8
355.94 K | 458.6
357.92 K | 459.5
359.89 K | 460.7
361.87 K | 462.1
363.84 K | 463
365.81 K | 464.1
367.78 K | 465
